Assay results reported in PubChem BioAssay (NCI).
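Here, GI50 denotes the concentration required for 50% inhibition of growth. TGI denotes the concentration required for complete inhibition of growth.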

Key:
Test in all cases: inhibition of tumour cell growth, NCI panel, 384-well format
MDA-MB-435 melanoma = tested on: MDA-MB-435 melanoma
SN12C renal = tested on: SN12C renal
MOLT-4 leukemia = tested on: MOLT-4 leukemia
SNB-75 CNS = tested on: SNB-75 CNS
SK-MEL-28 melanoma = tested on: SK-MEL-28 melanoma
SK-OV-3 ovarian = tested on: SK-OV-3 ovarian
UO-31 renal = tested on: UO-31 renal
NCI-H460 NSCLC = tested on: NCI-H460 NSCLC
OVCAR-8 ovarian = tested on: OVCAR-8 ovarian
BT-549 breast = tested on: BT-549 breast
PC-3 prostate = tested on: PC-3 prostate
SF-539 CNS = tested on: SF-539 CNS
SF-268 CNS = tested on: SF-268 CNS
A498 renal = tested on: A498 renal
OVCAR-3 ovarian = tested on: OVCAR-3 ovarian
HCT-116 colon = tested on: HCT-116 colon
RPMI-8226 leukemia = tested on: RPMI-8226 leukemia
HOP-62 NSCLC = tested on: HOP-62 NSCLC
M14 melanoma = tested on: M14 melanoma
UACC-257 melanoma = tested on: UACC-257 melanoma
TK-10 renal = tested on: TK-10 renal
NCI-H226 lung = tested on: NCI-H226 lung
786-0 renal = tested on: 786-0 renal
U251 glioblastoma = tested on: U251 glioblastoma
MALME-3M melanoma = tested on: MALME-3M melanoma
HCC-2998 colon = tested on: HCC-2998 colon
CAKI-1 renal = tested on: CAKI-1 renal
HL-60(TB) leukemia = tested on: HL-60(TB) leukemia
KM12 colon = tested on: KM12 colon
NCI/ADR-RES ovarian = tested on: NCI/ADR-RES ovarian
COLO 205 colon = tested on: COLO 205 colon
NCI-H522 lung = tested on: NCI-H522 lung
T-47D breast = tested on: T-47D breast
MDA-MB-231 breast = tested on: MDA-MB-231 breast
IGROV1 ovarian = tested on: IGROV1 ovarian
OVCAR-5 ovarian = tested on: OVCAR-5 ovarian
EKVX NSCLC = tested on: EKVX NSCLC
HOP-92 NSCLC = tested on: HOP-92 NSCLC
SF-295 CNS = tested on: SF-295 CNS
OVCAR-4 ovarian = tested on: OVCAR-4 ovarian
A549 NSCLC = tested on: A549 NSCLC
SNB-19 CNS = tested on: SNB-19 CNS
CCRF-CEM leukemia = tested on: CCRF-CEM leukemia
LOX IMVI melanoma = tested on: LOX IMVI melanoma
RXF 393 renal = tested on: RXF 393 renal
SK-MEL-5 melanoma = tested on: SK-MEL-5 melanoma
NCI-H322M lung = tested on: NCI-H322M lung
MCF7 breast = tested on: MCF7 breast
HCT-15 colon = tested on: HCT-15 colon
NCI-H23 lung = tested on: NCI-H23 lung
HT29 colon = tested on: HT29 colon
SR leukemia = tested on: SR leukemia
HS 578T breast = tested on: HS 578T breast
MDA-MB-468 breast = tested on: MDA-MB-468 breast
UACC-62 melanoma = tested on: UACC-62 melanoma
ACHN renal = tested on: ACHN renal
SW-620 colon = tested on: SW-620 colon
DU-145 prostate = tested on: DU-145 prostate

Structure (SMILES): C=CC(=O)N1CCN(c2nc(=O)n(-c3c(C)ccnc3C(C)C)c3nc(-c4c(O)cccc4F)c(F)cc23)[C@@H](C)C1
- GI50 (MDA-MB-435 melanoma): 62.4 µM
- TGI (MDA-MB-435 melanoma): > 100 µM
- GI50 (SN12C renal): 50.3 µM
- TGI (SN12C renal): > 100 µM
- GI50 (MOLT-4 leukemia): 9.94 µM
- TGI (MOLT-4 leukemia): 22.2 µM
- GI50 (SNB-75 CNS): 54.2 µM
- TGI (SNB-75 CNS): 97.5 µM
- GI50 (SK-MEL-28 melanoma): > 100 µM
- TGI (SK-MEL-28 melanoma): > 100 µM
- GI50 (SK-OV-3 ovarian): 46.5 µM
- TGI (SK-OV-3 ovarian): > 100 µM
- GI50 (UO-31 renal): 69.7 µM
- TGI (UO-31 renal): > 100 µM
- GI50 (NCI-H460 NSCLC): 28.2 µM
- TGI (NCI-H460 NSCLC): 65.4 µM
- GI50 (OVCAR-8 ovarian): 19.7 µM
- TGI (OVCAR-8 ovarian): 36.6 µM
- GI50 (BT-549 breast): 15.7 µM
- TGI (BT-549 breast): 35.2 µM
- GI50 (PC-3 prostate): 35.9 µM
- TGI (PC-3 prostate): > 94.4 µM
- GI50 (SF-539 CNS): 17.4 µM
- TGI (SF-539 CNS): 33.3 µM
- GI50 (SF-268 CNS): 27.8 µM
- TGI (SF-268 CNS): 79.8 µM
- GI50 (A498 renal): 31.1 µM
- TGI (A498 renal): > 82.8 µM
- GI50 (OVCAR-3 ovarian): 22 µM
- TGI (OVCAR-3 ovarian): 50.8 µM
- GI50 (HCT-116 colon): 17.5 µM
- TGI (HCT-116 colon): 35.6 µM
- GI50 (RPMI-8226 leukemia): 16.6 µM
- TGI (RPMI-8226 leukemia): 32.5 µM
- GI50 (HOP-62 NSCLC): 0.0543 µM
- TGI (HOP-62 NSCLC): 26 µM
- GI50 (M14 melanoma): 32.1 µM
- TGI (M14 melanoma): > 79.9 µM
- GI50 (UACC-257 melanoma): 37.1 µM
- TGI (UACC-257 melanoma): > 100 µM
- GI50 (TK-10 renal): 46.2 µM
- TGI (TK-10 renal): > 100 µM
- GI50 (NCI-H226 lung): 20.5 µM
- TGI (NCI-H226 lung): 52.2 µM
- GI50 (786-0 renal): 21.4 µM
- TGI (786-0 renal): 44.4 µM
- GI50 (U251 glioblastoma): 22 µM
- TGI (U251 glioblastoma): 52.6 µM
- GI50 (MALME-3M melanoma): 14.7 µM
- TGI (MALME-3M melanoma): 35.3 µM
- GI50 (HCC-2998 colon): 15 µM
- TGI (HCC-2998 colon): 29.6 µM
- GI50 (CAKI-1 renal): 30.9 µM
- TGI (CAKI-1 renal): > 89.7 µM
- GI50 (HL-60(TB) leukemia): 19.8 µM
- TGI (HL-60(TB) leukemia): 35.5 µM
- GI50 (KM12 colon): 31.5 µM
- TGI (KM12 colon): > 75.8 µM
- GI50 (NCI/ADR-RES ovarian): > 100 µM
- TGI (NCI/ADR-RES ovarian): > 100 µM
- GI50 (COLO 205 colon): 24.7 µM
- TGI (COLO 205 colon): 58.8 µM
- GI50 (NCI-H522 lung): 21.1 µM
- TGI (NCI-H522 lung): 43.2 µM
- GI50 (T-47D breast): > 81.3 µM
- TGI (T-47D breast): > 100 µM
- GI50 (MDA-MB-231 breast): 24.3 µM
- TGI (MDA-MB-231 breast): 57 µM
- GI50 (IGROV1 ovarian): 27 µM
- TGI (IGROV1 ovarian): 71 µM
- GI50 (OVCAR-5 ovarian): > 100 µM
- TGI (OVCAR-5 ovarian): > 100 µM
- GI50 (EKVX NSCLC): 37.1 µM
- TGI (EKVX NSCLC): > 100 µM
- GI50 (HOP-92 NSCLC): 48.6 µM
- TGI (HOP-92 NSCLC): > 100 µM
- GI50 (SF-295 CNS): 33.4 µM
- TGI (SF-295 CNS): > 88.3 µM
- GI50 (OVCAR-4 ovarian): 43.8 µM
- TGI (OVCAR-4 ovarian): > 100 µM
- GI50 (A549 NSCLC): 32.5 µM
- TGI (A549 NSCLC): > 85.6 µM
- GI50 (SNB-19 CNS): 53.9 µM
- TGI (SNB-19 CNS): > 100 µM
- GI50 (CCRF-CEM leukemia): 18.8 µM
- TGI (CCRF-CEM leukemia): 34.2 µM
- GI50 (LOX IMVI melanoma): 16.6 µM
- TGI (LOX IMVI melanoma): 31.8 µM
- GI50 (RXF 393 renal): 4.34 µM
- TGI (RXF 393 renal): 14.3 µM
- GI50 (SK-MEL-5 melanoma): 21.6 µM
- TGI (SK-MEL-5 melanoma): 46.5 µM
- GI50 (NCI-H322M lung): 44.6 µM
- TGI (NCI-H322M lung): > 100 µM
- GI50 (MCF7 breast): 36.9 µM
- TGI (MCF7 breast): > 100 µM
- GI50 (HCT-15 colon): 27.2 µM
- TGI (HCT-15 colon): > 65.3 µM
- TGI (NCI-H23 lung): 0.592 µM
- GI50 (HT29 colon): 33.2 µM
- TGI (HT29 colon): > 100 µM
- GI50 (SR leukemia): 6.68 µM
- TGI (SR leukemia): 18.9 µM
- GI50 (HS 578T breast): 13.9 µM
- TGI (HS 578T breast): 35.1 µM
- GI50 (MDA-MB-468 breast): 13 µM
- TGI (MDA-MB-468 breast): 37.2 µM
- GI50 (UACC-62 melanoma): 43.5 µM
- TGI (UACC-62 melanoma): > 100 µM
- GI50 (ACHN renal): 30.2 µM
- TGI (ACHN renal): > 68.2 µM
- GI50 (SW-620 colon): 36.8 µM
- TGI (SW-620 colon): > 100 µM
- GI50 (DU-145 prostate): 25.3 µM
- TGI (DU-145 prostate): 74.7 µM
